Experimental data taken from patent US20050113413A1, “Naphthalene-1,5-disulfonic acid salts of a substituted 4-amino-1-(pyridylmethyl)piperidine compound” (priority 2003, published 2005).

Legend:
Type in all cases: physicochemical
[1] = Chemical stability of salt forms (change in purity by HPLC upon storage); details: 40° C. and 75% relative humidity, 7 days; for % Change in Impurity A / % Change in Impurity B / % Change in Purity of Salt: HPLC Method D; for % Change in Purity of Salt: heat sealed polyethylene bags
Description: The chemical stability of each salt form was evaluated by determining the change in purity of the sample upon storage of the salt form at 40° C.
Prior to storage, each salt form was analyzed by HPLC (Method D) to determine sample purity and in particular, to determine the amount of the following impurities present in the sample: • A. 3-[4-{N-[7-(3-(S)-1-Carbamoyl-1,1-diphenylmethyl)pyrrolidin-1-yl)hept-1-yl]-N-(isopropyl)amino}piperidin-1-ylmethyl]-4-methoxy-1-methylpyridinium Salt (Impurity A); • B. 4-{N-[7-(3-(S)-1-Carbamoyl-1,1-diphenylmethyl)pyrrolidin-1-yl)hept-1-yl]-N-(isopropyl)amino}-1-(4-oxo-1,4-dihydropyrid-3-ylmethyl)piperidine (Impurity B).
Approximately 50-100 mg of the salt form was then placed in two heat sealed low density polyethylene bags. The bags were then placed into a stability chamber that was previously set at 40° C. and 75% relative humidity. After 7 days, the bags were removed and the contents were analyzed by HPLC.

[2] = Physical stability of encapsulated pharmaceutical formulations (appearance upon storage); details: both 25° C. and 60% relative humidity, and ambient temperature and relative humidity
Description: The physical stability of encapsulated pharmaceutical formulations containing certain salt forms was evaluated by determining any changes in appearance of the pharmaceutical formulation upon storage.
Capsules containing a 1:1 mixture (wt/wt) of the salt form and microcrystalline cellulose (Avecil) were stored under of the following conditions: • (1) Capsules were placed inside an open container within a stability chamber that was previously set to 25° C. and 60% relative humidity; or • (2) Capsules were placed inside an open container on the bench top alongside a thermometer and hygrometer.
At periodic intervals, the appearance of each formulation was compared to its starting appearance and any differences were recorded.

[3] = Physical stability of salt forms (appearance upon storage in open vial); details: 30° C. and 60% relative humidity, listed as naphthalene-1,5-disulfonic acid salt
Description: The physical stability of certain salt forms was evaluated by determining any changes in appearance of the sample upon storage of the salt form at 30° C. and 60% relative humidity.
To an open vial was added 50-100 mg of each salt form. The open vials were placed in a stability chamber that was previously set at 30° C. and 60% relative humidity. At periodic intervals, the appearance of each salt form was compared to its starting appearance and any differences were recorded.

| SMILES | % Change in Impurity A [1] [%] | % Change in Impurity B [1] [%] | % Change in Purity of Salt [1] [%] | Appearance of pharmaceutical formulation upon storage (summary in words of Table III) [2] | Chemical stability (summary in words of Table I) [1] | Appearance Day 15 [3] |
| --- | --- | --- | --- | --- | --- | --- |
| COc1ccncc1CN1CCC(N(CCCCCCCN2CC[C@@H](C(C(N)=O)(c3ccccc3)c3ccccc3)C2)C(C)C)CC1.O=S(=O)(O)O [Example 11A] | <0.1 | 0.11 | 0.8 | – | – | – |
| COc1ccncc1CN1CCC(N(CCCCCCCN2CC[C@@H](C(C(N)=O)(c3ccccc3)c3ccccc3)C2)C(C)C)CC1.CS(=O)(=O)O.CS(=O)(=O)O.CS(=O)(=O)O [Example 10] | 9.41 | 6.59 | 16.4 | – | – | – |
| COc1ccncc1CN1CCC(N(CCCCCCCN2CC[C@@H](C(C(N)=O)(c3ccccc3)c3ccccc3)C2)C(C)C)CC1.O=C(O)c1cc(=O)[nH]c(=O)[nH]1.O=C(O)c1cc(=O)[nH]c(=O)[nH]1 [Example 11C] | 0.45 | 0.49 | 1.1 | – | – | – |
| COc1ccncc1CN1CCC(N(CCCCCCCN2CC[C@@H](C(C(N)=O)(c3ccccc3)c3ccccc3)C2)C(C)C)CC1.O=C(O)C(O)C(O)C(=O)O [Example 11B] | 0.26 | 0.35 | 0.8 | formed a non-flowing granular cake | – | – |
| COc1ccncc1CN1CCC(N(CCCCCCCN2CC[C@@H](C(C(N)=O)(c3ccccc3)c3ccccc3)C2)C(C)C)CC1.Cl.Cl [Example 11G] | 1.16 | 0.79 | 3.6 | – | – | – |
| COc1ccncc1CN1CCC(N(CCCCCCCN2CC[C@@H](C(C(N)=O)(c3ccccc3)c3ccccc3)C2)C(C)C)CC1.O=C(O)c1ccccc1O.O=C(O)c1ccccc1O [Example 11D] | 0.17 | 0.19 | 0.7 | – | – | – |
| COc1ccncc1CN1CCC(N(CCCCCCCN2CC[C@@H](C(C(N)=O)(c3ccccc3)c3ccccc3)C2)C(C)C)CC1.O=C(O)c1cc(O)ccc1O.O=C(O)c1cc(O)ccc1O [Example 11F] | 0.21 | 0.23 | 0.4 | – | – | – |
| COc1ccncc1CN1CCC(N(CCCCCCCN2CC[C@@H](C(C(N)=O)(c3ccccc3)c3ccccc3)C2)C(C)C)CC1.CS(=O)(=O)O.CS(=O)(=O)O [Example 9] | <0.1 | <0.1 | 0.9 | – | – | – |
| COc1ccncc1CN1CCC(N(CCCCCCCN2CC[C@@H](C(C(N)=O)(c3ccccc3)c3ccccc3)C2)C(C)C)CC1.O=C(O)c1ccccc1O.O=C(O)c1ccccc1O.O=C(O)c1ccccc1O [Example 11E] | 1.22 | 1.06 | 2.7 | – | – | – |
| COc1ccncc1CN1CCC(N(CCCCCCCN2CC[C@@H](C(C(N)=O)(c3ccccc3)c3ccccc3)C2)C(C)C)CC1.O=S(=O)(O)c1cccc2c(S(=O)(=O)O)cccc12 [Example 7] | <0.1 | <0.1 | 0.4 | remained a free flowing powder | excellent chemical stability | remained a free flowing powder |
